# What was measured:
# Progesterone receptor = target: T1, Progesterone receptor (Bos taurus, UniProt Q690N0); experiment: DRUGMATRIX: Progesterone radioligand binding (ligand: [3H] R-5020); type: tissue-based, Uterus; settings: Not Active = under 50% inhibition at 10 µM
# T1 sequence (Q690N0 whole entry): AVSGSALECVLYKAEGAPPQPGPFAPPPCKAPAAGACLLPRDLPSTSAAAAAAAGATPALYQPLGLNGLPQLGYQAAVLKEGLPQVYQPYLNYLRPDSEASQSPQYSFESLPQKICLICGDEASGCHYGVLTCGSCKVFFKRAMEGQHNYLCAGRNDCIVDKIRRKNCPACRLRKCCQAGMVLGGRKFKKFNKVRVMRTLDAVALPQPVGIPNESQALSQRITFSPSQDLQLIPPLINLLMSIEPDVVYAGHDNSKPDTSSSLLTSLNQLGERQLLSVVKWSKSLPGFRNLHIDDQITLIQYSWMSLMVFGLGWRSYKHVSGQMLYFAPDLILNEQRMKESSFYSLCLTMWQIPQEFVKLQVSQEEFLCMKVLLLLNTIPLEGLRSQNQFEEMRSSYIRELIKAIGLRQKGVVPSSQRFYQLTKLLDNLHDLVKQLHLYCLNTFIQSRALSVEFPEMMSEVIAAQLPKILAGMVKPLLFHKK
# Melanocortin receptor 3 = Melanocortin receptor 3 (Homo sapiens, UniProt P41968); type: cell membranes, HEK293, Membrane; settings: hek293; note: in other assays of this panel Not Active means under 50% inhibition at 10 µM
# [1] = target: T2, Polyunsaturated fatty acid lipoxygenase ALOX15 (Oryctolagus cuniculus, UniProt P12530); experiment: biochemical; type: tissue-based, Reticulocytes;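 note: inhibition of 15-lipoxygenase enzyme activity measured with linoleic acid as the substrate; in other assays of this panel Not Active means under 50% inhibition at 10 µM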
# T2 sequence (P12530 whole entry): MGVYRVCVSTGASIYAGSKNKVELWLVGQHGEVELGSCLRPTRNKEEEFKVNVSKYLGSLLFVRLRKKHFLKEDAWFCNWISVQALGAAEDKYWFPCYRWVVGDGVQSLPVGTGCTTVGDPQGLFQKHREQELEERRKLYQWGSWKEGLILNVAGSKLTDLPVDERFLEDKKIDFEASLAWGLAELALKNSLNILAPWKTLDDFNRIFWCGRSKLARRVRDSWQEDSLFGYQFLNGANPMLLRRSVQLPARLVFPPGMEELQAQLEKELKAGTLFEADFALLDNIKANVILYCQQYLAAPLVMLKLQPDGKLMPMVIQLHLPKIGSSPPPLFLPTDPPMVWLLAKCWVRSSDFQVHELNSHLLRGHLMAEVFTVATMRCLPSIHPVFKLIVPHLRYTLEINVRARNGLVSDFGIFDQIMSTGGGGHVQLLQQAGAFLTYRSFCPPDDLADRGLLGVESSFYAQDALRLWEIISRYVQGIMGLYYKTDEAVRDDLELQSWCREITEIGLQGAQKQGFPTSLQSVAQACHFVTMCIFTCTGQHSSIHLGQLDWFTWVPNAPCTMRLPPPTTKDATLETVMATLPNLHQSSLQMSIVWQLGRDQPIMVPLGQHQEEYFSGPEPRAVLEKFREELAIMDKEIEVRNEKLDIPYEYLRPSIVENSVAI
# Carbonic anhydrase 2 = Carbonic anhydrase 2 (Homo sapiens, UniProt P00918); experiment: DRUGMATRIX: Carbonic Anhydrase II enzyme inhibition (substrate: 4-Nitrophenyl acetate (4-NPA)); type: tissue-based; settings: erythrocyte; Not Active = under 50% inhibition at 10 µM
# Leukotriene C4 synthase = target: T3, Leukotriene C4 synthase (Cavia porcellus, UniProt A6XA80); type: tissue-based, Lung;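 note: enzyme inhibition assay of leukotriene C4 synthase, using LTA4 as the substrate; in other assays of this panel Not Active means under 50% inhibition at 10 µM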
# T3 sequence (A6XA80 whole entry): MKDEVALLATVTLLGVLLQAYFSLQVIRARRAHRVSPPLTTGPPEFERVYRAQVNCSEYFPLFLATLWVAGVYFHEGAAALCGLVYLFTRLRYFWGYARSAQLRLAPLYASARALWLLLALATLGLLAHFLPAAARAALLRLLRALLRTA
# [2] = target: Beta-1 adrenergic receptor (Homo sapiens, UniProt P08588); experiment: DRUGMATRIX: Adrenergic beta1 radioligand binding (ligand: [125I] Cyanopindolol); type: cell membranes, CHO-K1, Membrane; settings: cho-k1; Not Active = under 50% inhibition at 10 µM
# [3] = DRUGMATRIX: Glutamate, Kainate radioligand binding (ligand: [3H] Kainic acid); type: cell membranes, Rattus norvegicus, Wistar, Brain, Membrane; settings: Not Active = under 50% inhibition at 10 µM
# Sequence of Melanocortin receptor 3 (P41968 whole entry): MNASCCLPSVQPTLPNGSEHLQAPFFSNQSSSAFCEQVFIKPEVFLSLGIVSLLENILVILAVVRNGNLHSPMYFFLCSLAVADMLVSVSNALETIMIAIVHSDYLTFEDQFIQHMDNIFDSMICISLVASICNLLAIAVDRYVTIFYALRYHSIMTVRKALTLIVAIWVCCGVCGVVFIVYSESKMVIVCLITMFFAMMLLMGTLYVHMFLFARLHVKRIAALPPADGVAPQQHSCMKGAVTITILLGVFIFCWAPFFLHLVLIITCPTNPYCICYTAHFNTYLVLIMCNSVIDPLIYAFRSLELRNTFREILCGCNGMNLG
# Sequence of Beta-1 adrenergic receptor (P08588 whole entry): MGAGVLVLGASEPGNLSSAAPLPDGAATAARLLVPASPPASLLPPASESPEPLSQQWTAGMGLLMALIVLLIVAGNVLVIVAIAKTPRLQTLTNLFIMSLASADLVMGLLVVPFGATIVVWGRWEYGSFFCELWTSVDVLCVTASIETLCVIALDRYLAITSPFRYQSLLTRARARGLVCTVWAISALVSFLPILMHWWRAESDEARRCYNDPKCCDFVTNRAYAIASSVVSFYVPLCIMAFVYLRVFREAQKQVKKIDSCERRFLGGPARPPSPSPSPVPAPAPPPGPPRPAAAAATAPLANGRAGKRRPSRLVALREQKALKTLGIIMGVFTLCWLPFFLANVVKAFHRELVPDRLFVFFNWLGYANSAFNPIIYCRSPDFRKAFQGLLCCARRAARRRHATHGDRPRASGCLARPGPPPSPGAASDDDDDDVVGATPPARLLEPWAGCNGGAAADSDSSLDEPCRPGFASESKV
Compound,IC50 (Progesterone receptor),IC50 (Melanocortin receptor 3),IC50 ([1]; reticulocytes),IC50 (Carbonic anhydrase 2),IC50 (Leukotriene C4 synthase),IC50 [2],IC50 [3],Ki [3],IC50 ([1]; read-out: IC50) [nM],IC50 (Progesterone receptor; read-out: IC50) [nM],Ki (Progesterone receptor; read-out: Ki) [nM]
CC(c1cc2ccccc2s1)N(O)C(N)=O (stereo not drawn) [ZILEUTON],Not Active,Not Active,Not Active,Not Active,Not Active,Not Active,Not Active,Not Active,–,–,–
O=C1Nc2ccc(Cl)cc2C(c2ccccc2Cl)=NC1O (stereo not drawn) [LORAZEPAM],Not Active,Not Active,Not Active,Not Active,Not Active,Not Active,Not Active,Not Active,–,–,–
CCN(CC)CCOc1ccc(/C(=C(/Cl)c2ccccc2)c2ccccc2)cc1 [ENCLOMIPHENE],Not Active,Not Active,Not Active,Not Active,Not Active,Not Active,–,–,–,–,–
CC(C)Cc1ccc([C@@H](C)C(=O)O)cc1 [(R)-IBUPROPHEN],Not Active,Not Active,Not Active,Not Active,Not Active,Not Active,Not Active,Not Active,–,–,–
O=C(Nc1ccc(Br)cc1)c1cc(Br)cc(Br)c1O [TRIBROMSALAN],Not Active,Not Active,Not Active,Not Active,Not Active,Not Active,Not Active,Not Active,–,–,–
CN(C/C=C/C#CC(C)(C)C)Cc1cccc2ccccc12 [TERBINAFINE],Not Active,Not Active,Not Active,Not Active,Not Active,Not Active,Not Active,Not Active,–,–,–
CC(C)NCC(O)c1ccc(NS(C)(=O)=O)cc1 (stereo not drawn) [SOTALOL],Not Active,Not Active,Not Active,Not Active,Not Active,–,Not Active,Not Active,–,–,–
CC(C)NCC(O)c1ccc(O)c(O)c1 (stereo not drawn) [ISOPROTERENOL],Not Active,Not Active,–,Not Active,Not Active,–,Not Active,Not Active,1770,–,–
CN[C@H]1CC[C@@H](c2ccc(Cl)c(Cl)c2)c2ccccc21 [SERTRALINE],Not Active,Not Active,Not Active,Not Active,Not Active,Not Active,–,–,–,–,–
Fc1ccc(C(c2ccc(F)cc2)N2CCN(C/C=C/c3ccccc3)CC2)cc1 [FLUNARIZINE],Not Active,Not Active,Not Active,Not Active,Not Active,Not Active,–,–,–,–,–
COc1cc2nc(N3CCN(C(=O)C4CCCO4)CC3)nc(N)c2cc1OC (stereo not drawn) [TERAZOSIN],–,Not Active,Not Active,Not Active,Not Active,Not Active,Not Active,Not Active,–,–,–
CN(C)CCOC(c1ccccc1)c1ccccc1 [DIPHENHYDRAMINE],Not Active,Not Active,Not Active,Not Active,Not Active,Not Active,–,–,–,–,–
CNCCC(Oc1ccc(C(F)(F)F)cc1)c1ccccc1 (stereo not drawn) [FLUOXETINE],Not Active,Not Active,Not Active,Not Active,Not Active,Not Active,–,–,–,–,–
Cc1ccc(NC(=O)c2ccc(CN3CCN(C)CC3)cc2)cc1Nc1nccc(-c2cccnc2)n1 [IMATINIB],Not Active,Not Active,Not Active,–,Not Active,Not Active,–,–,–,–,–
Clc1ccc(COC(Cn2ccnc2)c2ccc(Cl)cc2Cl)cc1 (stereo not drawn) [ECONAZOLE],–,–,Not Active,Not Active,Not Active,–,–,–,–,10200,1330
CCN1CCC[C@H]1CNC(=O)c1cc(S(N)(=O)=O)ccc1OC [LEVOSULPIRIDE],Not Active,Not Active,Not Active,–,Not Active,Not Active,Not Active,Not Active,–,–,–

# Source: ChEMBL document CHEMBL1909046, “DrugMatrix in vitro pharmacology data”
